Measured values reported in US11964943B2, “3,5-diarylidenyl-n-substituted-piperid-4-one-derived inhibitors of Stat3 pathway activity and uses thereof” (priority 2017, dated 2024).
Where “and” joins values, the source holds several entries; their conditions need not be identical. Equal values may be shown once.

Legend:
[1] = system: DU145 cells; assay: Annexin V/PI apoptosis assay; format: cell-based; details: DU145, 24 h, increasing concentrations
Protocol: Cells were seeded in 24-well plates at densities of 10×10^4 cells/well (A2780-cisplatin resistant) and 1.6×10^4 cells/well (DU145) and allowed to grow at 37° C. overnight prior to treatment. […] At the end of the drug incubations, the supernatant along with the trypsinised cells were collected in falcon tubes and spun for 3 min at 300 g. Cell pellets were resuspended in PBS and transferred to fresh Eppendorf tubes. After a final round of centrifugation, cell pellets were gently resuspended in 150 μl of a Annexin V-FITC labelled solution in binding buffer (2 μl per 150 μl buffer; Binding buffer: 10 mM Hepes/NaOH, pH 7.4, 140 mM NaCl and 2.5 mM CaCl2) and incubated in the dark at 37° C. for 15 min. Cells were subsequently stained with 150 μl of a 200 mg/mL PI-solution and samples were immediately processed with the flow cytometer. […] The data were analysed and presented using the FlowJo software.
Annexin V/Propidium iodide Apoptosis/Cell death was assessed by flow cytometry using the FITC-conjugated annexin V protein (Affymetrix, eBioscience) and propidium iodide double staining. […] Cells were subsequently counterstained with the addition of PI (200 μg/ml) and analysed on a Millipore Guava easyCyte™ 8HT flow cytometer using the InCyte software. The derived data were analysed as dot plots and quantified using the FlowJo software (TreeStar).

[2] = system: A2780-cisplatin resistant spheroids; assay: Spheroid diameter measurement; format: cell-based; details: for Diameter (μm): 96 h
Protocol: For cell spheroid formation, HCT116-oxaliplatin resistant cells, A2780-cisplatin resistant cells, and HT1080 cells were seeded in Corning® Spheroid opaque-walled 96 well Microplates (ultra-low attachment; Nuclon™ Sphera™, Thermofisher) at densities of 2000 cells/well in 100 μl of cell solution and allowed to grow for 4 days, before any manipulation.
The diameters of spheroid cells were determined using Cell^F Imaging Software. A diameter corresponds to the mean value of one horizontal and one vertical measurement.

[3] = system: HCT116-oxaliplatin resistant xenografts; assay: In vivo survival experiment; design: species or system mice
Protocol: Six- to eight-week old female Balb/c mice (weighing about 20 g) were purchased from the Harlan Laboratories, San Pietro al Natisone, Italy. The animals were kept in a pathogen-free environment, and every procedure was done in a laminar airflow cabinet. HCT16-oxaliplatin resistant cells (5×10^5) were injected subcutaneously into the right flank of female Balb/c mice. The animals were treated with IE-8 intraperitoneally (30 mg kg-1; solutions freshly prepared in the standard mixture of 1% DMSO, Cremophor, Ethanol and H2O) on days 10, 13 and 17. The animals were controlled for distress development every day. […] Control and treatment group n=4.

[4] = system: HT1080 fibrosarcoma spheroids; assay: Spheroid invasion assay; format: cell-based; details: 3 μM, 90 h observation
Protocol: Multicellular spheroids from HT-1080 cells were grown for 4 days in RPMI 1640 medium in 96-well plates (Nunclon Sphera, Thermo Fisher) and their size was measured with an inverted microscope (Olympus CKX41, 4× objective) and Cell^F software. […] Growth factor reduced Matrigel (Becton Dickinson) was thawed on ice and diluted in 4° C. cold medium to a final concentration of 300 μg/mL with or without IE-8. One hundred fifty microliter of these solutions were added to the wells containing spheroids in 50 μL medium. The plate was incubated in a humidified atmosphere with 5% CO2 in air at 37° C. Both untreated and treated spheroids were monitored simultaneously with a JuliBr live cell analyzer (NanoEntek) for 90 h to visualize spheroid invasion, and every hour the relative cross-sectional area of the spheroids was measured.

[5] = system: cisplatin-produced DNA interstrand crosslinks; assay: Modified single cell gel electrophoresis (comet) assay; format: cell-based
Protocol: The following procedure for the modified single-cell gel electrophoresis (comet) assay [Hartley. J. M., et al. Drug-DNA Interact. Protoc. Methods Mol. Biol. 2010, 613, 267] was applied to measure DNA interstrand crosslinking (ICL) induced by platinum drug in DU145 and A549 cells. Exponentially growing cells were treated for 1 h with different concentrations of cisplatin and collected after 0, 9, 24 and 48 h. All procedures were carried out on ice. Cells were diluted to a final concentration of 2.5×10^4 cells/ml and irradiated with X-ray (15 Gy) in order to deliver a fixed number of random DNA strand breaks (except for the untreated unirradiated control). Cells were embedded in 1% agarose on a precoated microscope slide, and each sample was prepared in duplicate. […] Images were captured using an on-line CCD camera and analysed using the Komet Analysis software 4.02 (Andor Technology, Belfast, UK). […] 25 cells were analysed. The tail moment for each image was calculated as the product of the percentage of DNA in the comet tail and the distance between the means of the head and tail distributions (Olive P. L., et al, Radiat Res 122, 86). DNA ICL after drug treatment was expressed as the percentage decrease in tail moment compared with irradiated controls calculated by the formula: % Decrease in tail moment=[1−(TMdi−TMcu/Tci−TMcu)]×100 […]

COc1cc(/C=C2\CN(c3ccccc3)C/C(=C\c3cc(OC)c(OC)c(OC)c3)C2=O)cc(OC)c1OC [IE-8, 3,5-Di(3,4,5-trimethoxybenzylidene)-1-phenylpiperidin-4-one]
apoptotic cells (Annexin V/PI) [1]: dose-dependent increase in apoptotic cells
spheroid size ([2]; 10 μM IE-8, 96 hours): markedly decreases the size of the spheroid
Diameter (μm) ([2]; IE-8 1.0 μM): 1176.0 μm
Diameter (μm) ([2]; IE-8 2.0 μM): 1037.0 μm
Diameter (μm) ([2]; IE-8 3.0 μM): 990.9 μm
Diameter (μm) ([2]; IE-8 4.0 μM): 820 μm and 819.7 μm
Diameter (μm) ([2]; IE-8 5.0 μM): 619.8 μm
body weight loss ([3]; 30 mg/kg intraperitoneally on days 10, 13 and 17): No body weight loss was observed
prolongation of survival versus vehicle ([3]; 30 mg/kg intraperitoneally on days 10, 13 and 17, n=4): about 20 days
rate of confluence (invasion) of spheroids in matrigel [4]: markedly reduced and also delayed
persistence of DNA ICLs in combination treatment ([5]; DU145, IE-8 pretreatment then cisplatin 1 h): up to 48 h
unhooking (repair) of cisplatin-produced DNA ICLs ([5]; DU145 and A549 cells, IE-8 pretreatment overnight or 1 h before cisplatin): impairs the ‘unhooking’ of the cisplatin-produced ICLs
